Data taken from ChEMBL document CHEMBL4622979, “Non-rigid Diarylmethyl Analogs of Baloxavir as Cap-Dependent Endonuclease Inhibitors of Influenza Viruses” (J Med Chem, 2020).

Assays:
[1] = Tmax in CD1 mouse blood assessed as baloxavir acid level at 15 mg/kg, po administered as single dose measured up to 24 hrs by LC-MS/MS analysis; assay type: ADME, organism-based; conditions: in vivo
[2] = Ratio of AUClast in CD1 mouse brain to plasma assessed as baloxavir acid level at 15 mg/kg, po administered as single dose measured up to 24 hrs by LC-MS/MS analysis; assay type: ADME, organism-based
[3] = Cmax in CD1 mouse plasma assessed as baloxavir acid level at 15 mg/kg, po administered as single dose measured up to 24 hrs by LC-MS/MS analysis; assay type: ADME, organism-based; design: dose 15 mg/kg, route oral; conditions: in vivo
[4] = Tmax in CD1 mouse plasma assessed as baloxavir acid level at 15 mg/kg, po administered as single dose measured up to 24 hrs by LC-MS/MS analysis; assay type: ADME, organism-based; conditions: in vivo
[5] = AUClast in CD1 mouse liver assessed as baloxavir acid level at 15 mg/kg, po administered as single dose measured up to 24 hrs by LC-MS/MS analysis; assay type: ADME, organism-based; conditions: in vivo
[6] = Ratio of AUClast in CD1 mouse lung to plasma assessed as baloxavir acid level at 15 mg/kg, po administered as single dose by LC-MS/MS analysis; assay type: ADME, organism-based; conditions: other tissue
[7] = Half life in CD1 mouse heart assessed as baloxavir acid level at 15 mg/kg, po administered as single dose measured up to 24 hrs by LC-MS/MS analysis; assay type: ADME, organism-based; conditions: in vivo
[8] = Ratio of Cmax in CD1 mouse lung to plasma assessed as baloxavir acid level at 15 mg/kg, po administered as single dose by LC-MS/MS analysis; assay type: ADME, organism-based; conditions: other tissue
[9] = Half life in CD1 mouse blood assessed as baloxavir acid level at 15 mg/kg, po administered as single dose measured up to 24 hrs by LC-MS/MS analysis; assay type: ADME, organism-based; conditions: in vivo
[10] = Cmax in CD1 mouse spleen assessed as baloxavir acid level at 15 mg/kg, po administered as single dose measured up to 24 hrs by LC-MS/MS analysis; assay type: ADME, organism-based; design: dose 15 mg/kg, route oral; conditions: in vivo
[11] = Ratio of AUClast in CD1 mouse liver to plasma assessed as baloxavir acid level at 15 mg/kg, po administered as single dose measured up to 24 hrs by LC-MS/MS analysis; assay type: ADME, organism-based; conditions: other tissue
[12] = MRTlast in CD1 mouse lung assessed as baloxavir acid level at 15 mg/kg, po administered as single dose measured up to 24 hrs by LC-MS/MS analysis; assay type: ADME, organism-based; conditions: in vivo
[13] = Cmax in CD1 mouse muscle assessed as baloxavir acid level at 15 mg/kg, po administered as single dose measured up to 24 hrs by LC-MS/MS analysis; assay type: ADME, organism-based, Muscle tissue; design: dose 15 mg/kg, route oral; conditions: in vivo
[14] = AUClast in CD1 mouse lung assessed as baloxavir acid level at 15 mg/kg, po administered as single dose by LC-MS/MS analysis; assay type: ADME, organism-based; conditions: in vivo
[15] = Tmax in CD1 mouse kidney assessed as baloxavir acid level at 15 mg/kg, po administered as single dose measured up to 24 hrs by LC-MS/MS analysis; assay type: ADME, organism-based; conditions: in vivo
[16] = MRTlast in CD1 mouse liver assessed as baloxavir acid level at 15 mg/kg, po administered as single dose measured up to 24 hrs by LC-MS/MS analysis; assay type: ADME, organism-based; conditions: in vivo
[17] = Half life in CD1 mouse kidney assessed as baloxavir acid level at 15 mg/kg, po administered as single dose measured up to 24 hrs by LC-MS/MS analysis; assay type: ADME, organism-based; conditions: in vivo
[18] = Tmax in CD1 mouse muscle assessed as (12aR)-12-(Diphenylmethyl)-7-hydroxy-3,4,12,12a-tetrahydro-1H-[1,4]oxazino[3,4-c]pyrido[2,1-f ][1,2,4]triazine-6,8-dione level at 15 mg/kg, po administered as single dose measured up to 24 hrs by LC-MS/MS analysis; assay type: ADME, organism-based, Muscle tissue; conditions: in vivo
[19] = Elimination rate constant in CD1 mouse small intestine assessed as (12aR)-12-(Diphenylmethyl)-7-hydroxy-3,4,12,12a-tetrahydro-1H-[1,4]oxazino[3,4-c]pyrido[2,1-f ][1,2,4]triazine-6,8-dione level at 15 mg/kg, po administered as single dose measured up to 24 hrs by LC-MS/MS analysis; assay type: ADME, organism-based; conditions: in vivo
[20] = Ratio of AUClast in CD1 mouse spleen to plasma assessed as (12aR)-12-(Diphenylmethyl)-7-hydroxy-3,4,12,12a-tetrahydro-1H-[1,4]oxazino[3,4-c]pyrido[2,1-f ][1,2,4]triazine-6,8-dione level at 15 mg/kg, po administered as single dose measured up to 24 hrs by LC-MS/MS analysis; assay type: ADME, organism-based; conditions: other tissue
[21] = AUClast in CD1 mouse kidney assessed as (12aR)-12-(Diphenylmethyl)-7-hydroxy-3,4,12,12a-tetrahydro-1H-[1,4]oxazino[3,4-c]pyrido[2,1-f ][1,2,4]triazine-6,8-dione level at 15 mg/kg, po administered as single dose measured up to 24 hrs by LC-MS/MS analysis; assay type: ADME, organism-based; conditions: in vivo
[22] = MRTlast in CD1 mouse small intestine assessed as (12aR)-12-(Diphenylmethyl)-7-hydroxy-3,4,12,12a-tetrahydro-1H-[1,4]oxazino[3,4-c]pyrido[2,1-f ][1,2,4]triazine-6,8-dione level at 15 mg/kg, po administered as single dose measured up to 24 hrs by LC-MS/MS analysis; assay type: ADME, organism-based; conditions: in vivo
[23] = MRTlast in CD1 mouse heart assessed as (12aR)-12-(Diphenylmethyl)-7-hydroxy-3,4,12,12a-tetrahydro-1H-[1,4]oxazino[3,4-c]pyrido[2,1-f ][1,2,4]triazine-6,8-dione level at 15 mg/kg, po administered as single dose measured up to 24 hrs by LC-MS/MS analysis; assay type: ADME, organism-based; conditions: in vivo
[24] = AUClast in CD1 mouse spleen assessed as (12aR)-12-(Diphenylmethyl)-7-hydroxy-3,4,12,12a-tetrahydro-1H-[1,4]oxazino[3,4-c]pyrido[2,1-f ][1,2,4]triazine-6,8-dione level at 15 mg/kg, po administered as single dose measured up to 24 hrs by LC-MS/MS analysis; assay type: ADME, organism-based; conditions: in vivo
[25] = AUClast in CD1 mouse plasma assessed as (12aR)-12-(Diphenylmethyl)-7-hydroxy-3,4,12,12a-tetrahydro-1H-[1,4]oxazino[3,4-c]pyrido[2,1-f ][1,2,4]triazine-6,8-dione level at 15 mg/kg, po administered as single dose measured up to 24 hrs by LC-MS/MS analysis; assay type: ADME, organism-based; design: dose 15 mg/kg, time < 24 hr, route oral; conditions: in vivo
[26] = Cmax in CD1 mouse kidney assessed as (12aR)-12-(Diphenylmethyl)-7-hydroxy-3,4,12,12a-tetrahydro-1H-[1,4]oxazino[3,4-c]pyrido[2,1-f ][1,2,4]triazine-6,8-dione level at 15 mg/kg, po administered as single dose measured up to 24 hrs by LC-MS/MS analysis; assay type: ADME, organism-based; design: dose 15 mg/kg, route oral; conditions: in vivo
[27] = MRTlast in CD1 mouse kidney assessed as (12aR)-12-(Diphenylmethyl)-7-hydroxy-3,4,12,12a-tetrahydro-1H-[1,4]oxazino[3,4-c]pyrido[2,1-f ][1,2,4]triazine-6,8-dione level at 15 mg/kg, po administered as single dose measured up to 24 hrs by LC-MS/MS analysis; assay type: ADME, organism-based; conditions: in vivo
[28] = Acute toxicity in CD1 mouse assessed as effect on intestine at 2000 mg/kg, po measured after 2 weeks by macroscopic analysis; assay type: organism-based; conditions: in vivo, 336 h

For COC(=O)OCOc1c2n(ccc1=O)N([C@@H]1c3ccccc3SCc3c1ccc(F)c3F)[C@@H]1COCCN1C2=O [BALOXAVIR MARBOXIL], the Tmax [1] was 2 h, the “Ratio AUC” value [2] was 0.7 and the Cmax [3] was 0.0885 µg/mL. For the same compound, the Tmax [4] was 2 h, the AUClast [5] was 85226 ng·h/g and the “Ratio AUC” value [6] was 16.7. It also gave a t1/2 [7] of 3.4 h, a Ratio [8] of 10.8 and a t1/2 [9] of 3.29 h. For the same compound, the Cmax [10] was 388 ng/g, the “Ratio AUC” value [11] was 189 and the MRTlast [12] was 4.84 h. For the same compound, the Cmax [13] was 916 ng/g, the AUClast [14] was 11909 ng·h/g and the Tmax [15] was 2 h. The MRTlast [16] was 2.92 h and the t1/2 [17] was 3.26 h.

For COC(=O)OCOc1c2n(ccc1=O)N(C(c1ccccc1)c1ccccc1)[C@@H]1COCCN1C2=O, the Tmax [18] was 0.5 h, the Kel [19] was 0.54 h⁻¹ and the “Ratio AUC” value [20] was 1.38. It also gave an AUClast [21] of 18065 ng·h/g, an MRTlast [22] of 1.28 h and an MRTlast [23] of 1.88 h. For the same compound, the AUClast [24] was 4545 ng·h/g, the AUClast [25] was 3.287 µg·h/mL and the Cmax [26] was 5260 ng/g. For the same compound, the MRTlast [27] was 2.5 h and the Activity [28] was “Non-Toxic”.
